Assay results published in US10925876B2, “Methods for using triazolo-pyrazinyl soluble guanylate cyclase activators in fibrotic disorders” (Merck Sharp & Dohme Corp., priority 2016, dated 2021).

Tests used:
sGC α1/β1 heterodimer = molecular target: T1, sGC α1/β1 heterodimer (Homo sapiens, UniProt Q02108+Q02153); test: Cell-Based sGC Functional Assay (CASA Assay), cGMP generation in CHO-K1/sGC cells;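 note: reference Compound A is a published heme-dependent sGC activator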; conditions: maximum cGMP production of Compound A set to 100% activation, read-out: % Act. (percent activation relative to Compound A)
T1 construct: expressed in transfected cells
T1 sequence (Q02108 1-690): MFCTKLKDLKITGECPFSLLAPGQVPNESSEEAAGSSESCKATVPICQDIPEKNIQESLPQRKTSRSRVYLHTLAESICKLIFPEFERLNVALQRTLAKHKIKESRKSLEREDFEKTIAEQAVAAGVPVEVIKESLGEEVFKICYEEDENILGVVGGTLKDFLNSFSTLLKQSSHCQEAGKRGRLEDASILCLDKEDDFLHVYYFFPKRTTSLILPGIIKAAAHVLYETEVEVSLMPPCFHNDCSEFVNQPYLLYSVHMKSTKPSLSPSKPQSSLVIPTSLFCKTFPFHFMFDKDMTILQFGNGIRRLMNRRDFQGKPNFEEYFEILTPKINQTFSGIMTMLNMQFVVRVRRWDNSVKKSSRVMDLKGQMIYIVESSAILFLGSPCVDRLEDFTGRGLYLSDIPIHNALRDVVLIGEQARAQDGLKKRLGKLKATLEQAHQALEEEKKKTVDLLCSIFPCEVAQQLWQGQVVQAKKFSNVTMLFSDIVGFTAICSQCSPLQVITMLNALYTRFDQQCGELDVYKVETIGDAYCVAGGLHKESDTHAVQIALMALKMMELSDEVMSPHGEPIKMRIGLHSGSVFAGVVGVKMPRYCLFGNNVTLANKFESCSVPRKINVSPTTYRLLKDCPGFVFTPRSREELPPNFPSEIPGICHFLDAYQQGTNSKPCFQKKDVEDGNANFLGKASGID
T1 sequence (Q02153 1-619): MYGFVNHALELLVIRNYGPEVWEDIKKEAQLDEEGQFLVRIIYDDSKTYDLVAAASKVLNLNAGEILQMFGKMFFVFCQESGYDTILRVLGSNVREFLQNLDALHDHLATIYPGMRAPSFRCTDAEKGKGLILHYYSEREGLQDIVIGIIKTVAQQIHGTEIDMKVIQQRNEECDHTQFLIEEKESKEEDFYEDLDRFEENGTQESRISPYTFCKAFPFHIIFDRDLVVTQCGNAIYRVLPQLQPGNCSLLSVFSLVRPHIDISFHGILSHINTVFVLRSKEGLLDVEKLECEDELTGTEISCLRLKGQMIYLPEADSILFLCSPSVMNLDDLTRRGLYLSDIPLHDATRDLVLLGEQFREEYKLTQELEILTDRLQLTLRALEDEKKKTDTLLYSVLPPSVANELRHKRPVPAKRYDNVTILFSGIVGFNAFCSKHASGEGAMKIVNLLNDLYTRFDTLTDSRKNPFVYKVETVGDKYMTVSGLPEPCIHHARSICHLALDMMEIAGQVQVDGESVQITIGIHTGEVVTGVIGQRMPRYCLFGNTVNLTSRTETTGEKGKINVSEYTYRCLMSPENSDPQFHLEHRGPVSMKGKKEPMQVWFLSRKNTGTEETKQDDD
How it was run: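 CHO-K1 cells stably expressing human sGC α1/β1, 4×10^5/mL in EBSS with 5 mM MgCl2, 10 mM HEPES, 0.05% BSA, 0.5 mM IBMX, 2.5% DMSO; compounds 1 h at 37 °C ± 1 μM DETA-NO. cGMP by HTRF, expressed as % of reference Compound A maximum; IP and max fold induction from 4P fit.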

[1] = tested on: Spontaneously hypertensive rats (SHR); test: Acute Efficacy in Spontaneously Hypertensive Rats (SHR), telemetry blood pressure; format: in vivo, rat; conditions: single oral gavage
Excerpt: Spontaneously hypertensive rats (SHR, male, Charles River) were implanted with DSI TA11PA-C40 telemetry device (Data Sciences, Inc., St. Paul, Minn.) under isoflurane or ketamine/metomidine anesthesia. The telemetry unit catheter was inserted into the descending aorta via the femoral artery and the telemetry device was implanted subcutaneously in the left flank area. Animals were allowed to recover from surgery for 14 days before the start of any studies. Blood pressure, heart rate, and activity signals from conscious, freely moving rats were recorded continuously for 30 seconds every 10 minutes. On the day prior to administration of compound, a single oral dose of vehicle (10% transcutol/20% Cremophor/70% water) was administered to all animals to establish baseline control data. The blood pressure lowering efficacy of compound (PO) or vehicle was evaluated following a single oral gavage. Data were collected as hourly averages, and changes in blood pressure were calculated by subtracting control baseline data on an hourly basis. Animals were maintained on normal diet with a 12 hour light-dark cycle.
Maximum peak decreases of systolic blood pressure (SBP) in SHR at a particular P.O. dose (mpk milligrams per kilogram) for the following representative compounds are provided. Category A=SBP in SHRs <20 mmHg; Category B=SBP in SHRs 20-40 mmHg; Category C=SBP in SHRs >40 mmHg.

Row | SMILES | Emax (sGC α1/β1 heterodimer) [%] | Maximum peak decrease of systolic blood pressure (SBP) in SHR, Cat. ([1]; P.O. 0.3 mpk) | Maximum peak decrease of systolic blood pressure (SBP) in SHR, Cat. ([1]; P.O. 1 mpk) | Maximum peak decrease of systolic blood pressure (SBP) in SHR, Cat. ([1]; P.O. 2 mpk)
1 | CC1(c2ccc(Cl)cn2)C(=O)Nc2nc(-c3cn4ncnc4c(CCC(F)(F)C(F)(F)F)n3)nc(N)c21 (stereo not drawn) [Example 3A, 4-amino-5-(5-chloropyridin-2-yl)-5-methyl-2-(8-(3,3,4,4,4-pentafluorobutyl)-[1,2,4]triazolo[1,5-a]pyrazin-6-yl)-5H-pyrrolo[2,3-d]pyrimidin-6(7H)-one] | 161 | B (Category B=SBP in SHRs 20-40 mmHg) |  | 
2 | CC1(c2ccc(Cl)cc2)C(=O)Nc2nc(-c3cn4ncnc4cn3)nc(N)c21 (stereo not drawn) [Example 94A, 2-([1,2,4]triazolo[1,5-a]pyrazin-6-yl)-4-amino-5-(4-chlorophenyl)-5-methyl-5H-pyrrolo[2,3-d]pyrimidin-6(7H)-one] | 138 |  | C (Category C=SBP in SHRs >40 mmHg) | 
3 | Cc1nc2c(CCC(F)(F)C(F)(F)F)nc(-c3nc(N)c4c(n3)NC(=O)[C@@]4(C)c3ccc(F)cc3)cn2n1 [Example 88B, (S)-4-amino-5-(4-fluorophenyl)-5-methyl-2-(2-methyl-8-(3,3,4,4,4-pentafluorobutyl)-[1,2,4]triazolo[1,5-a]pyrazin-6-yl)-5H-pyrrolo[2,3-d)pyrimidin-6(7H)-one] | 137 |  | C (Category C=SBP in SHRs >40 mmHg) | 
4 | CC1(c2ccc(F)cn2)C(=O)Nc2nc(-c3cn4ncnc4c(CCC(F)(F)C(F)(F)F)n3)nc(N)c21 (stereo not drawn) [Example 4B, 4-amino-5-(5-fluoropyridin-2-yl)-5-methyl-2-(8-(3,3,4,4,4-pentafluorobutyl)-[1,2,4]triazolo[1,5-a]pyrazin-6-yl)-5H-pyrrolo[2,3-d]pyrimidin-6(7H)-one] | 157 | C (Category C=SBP in SHRs >40 mmHg) |  | 
5 | CC1(c2ccc(C3CC3)nc2)C(=O)Nc2nc(-c3cn4ncnc4c(CCC(F)(F)C(F)(F)F)n3)nc(N)c21 (stereo not drawn) [Example 13B, 4-amino-5-(6-cyclopropylpyridin-3-yl)-5-methyl-2-(8-(3,3,4,4,4-pentafluorobutyl)-[1,2,4]triazolo[1,5-a]pyrazin-6-yl)-5H-pyrrolo[2,3-d]pyrimidin-6(7H)-one] | 109 |  | B (Category B=SBP in SHRs 20-40 mmHg) | 
6 | CC1(c2ccc(Cl)c(F)c2)C(=O)Nc2nc(-c3cn4ncnc4c(CCC(F)(F)C(F)(F)F)n3)nc(O)c21 (stereo not drawn) [Example 121B, 5-(4-chloro-3-fluorophenyl)-4-hydroxy-5-methyl-2-(8-(3,3,4,4,4-pentafluorobutyl)-[1,2,4]triazolo[1,5-a]pyrazin-6-yl)-5H-pyrrolo[2,3-d]pyrimidin-6(7H)-one] | 222 |  | B (Category B=SBP in SHRs 20-40 mmHg) | 
7 | Nc1nc(-c2cn3ncnc3c(CCC(F)(F)C(F)(F)F)n2)nc2c1C(c1ccc(Cl)cn1)(C1CC1)C(=O)N2 (stereo not drawn) [Example 7A, 4-amino-5-(5-chloropyridin-2-yl)-5-cyclopropyl-2-(8-(3,3,4,4,4-pentafluorobutyl)-[1,2,4]triazolo[1,5-a]pyrazin-6-yl)-5H-pyrrolo[2,3-d]pyrimidin-6(7H)-one] | 185 | B (Category B=SBP in SHRs 20-40 mmHg) |  | 
8 | Cc1nc2c(CCC(F)(F)C(F)(F)F)nc(-c3nc(N)c4c(n3)NC(=O)C4(C)c3nnc(C4CC4)o3)cn2n1 (stereo not drawn) [Example 103A, 4-amino-5-(5-cyclopropyl-1,3,4-oxadiazol-2-yl)-5-methyl-2-(2-methyl-8-(3,3,4,4,4-pentafluorobutyl)-[1,2,4]triazolo[1,5-a]pyrazin-6-yl)-5H-pyrrolo[2,3-d]pyrimidin-6(7H)-one] | 104 |  |  | A (Category A=SBP in SHRs <20 mmHg)
9 | CCCCc1nc(-c2nc(N)c3c(n2)NC(=O)C3(C)c2ccc(F)cn2)cn2ncnc12 (stereo not drawn) [Example 61B, 4-amino-2-(8-butyl-[1,2,4]triazolo[1,5-a]pyrazin-6-yl)-5-(5-fluoropyridin-2-yl)-5-methyl-5H-pyrrolo[2,3-d]pyrimidin-6(7H)-one] | 177 | C (Category C=SBP in SHRs >40 mmHg) |  | 
10 | CC1(c2nnc(C3CC3)o2)C(=O)Nc2nc(-c3cn4ncnc4c(CCC(F)(F)C(F)(F)F)n3)nc(N)c21 (stereo not drawn) [Example 98B, 4-amino-5-(5-cyclopropyl-1,3,4-oxadiazol-2-yl)-5-methyl-2-(8-(3,3,4,4,4-pentafluorobutyl)-[1,2,4]triazolo[1,5-a]pyrazin-6-yl)-5H-pyrrolo[2,3-d]pyrimidin-6(7H)-one] | 164 |  | B (Category B=SBP in SHRs 20-40 mmHg) | 
11 | CC1(c2ccc(C(F)(F)F)cn2)C(=O)Nc2nc(-c3cn4ncnc4c(CCCC(F)(F)F)n3)nc(C(N)=O)c21 (stereo not drawn) [Example 179B, 5-methyl-6-oxo-2-(8-(4,4,4-trifluorobutyl)-[1,2,4]triazolo[1,5-a]pyrazin-6-yl)-5-(5-(trifluoromethyl)pyridin-2-yl)-6,7-dihydro-5H-pyrrolo[2,3-d]pyrimidine-4-carboxamide] | 101 | B (Category B=SBP in SHRs 20-40 mmHg) |  | 
12 | CC1(c2ccc(Cl)cn2)C(=O)Nc2nc(-c3cn4ncnc4c(CCC(F)(F)C(F)(F)F)n3)nc(O)c21 (stereo not drawn) [Example 120A, 5-(5-chloropyridin-2-yl)-4-hydroxy-5-methyl-2-(8-(3,3,4,4,4-pentafluorobutyl)-[1,2,4]triazolo[1,5-a]pyrazin-6-yl)-5H-pyrrolo[2,3-d]pyrimidin-6(7H)-one] | 107 |  | B (Category B=SBP in SHRs 20-40 mmHg) | 
13 | Nc1nc(-c2cn3ncnc3c(CCCC(F)(F)F)n2)nc2c1C(c1ccc(Cl)c(F)c1)(C1CC1)C(=O)N2 (stereo not drawn) [Example 33A, 4-amino-5-(4-chloro-3-fluorophenyl)-5-cyclopropyl-2-(8-(4,4,4-trifluorobutyl)-[1,2,4]triazolo[1,5-a]pyrazin-6-yl)-5H-pyrrolo[2,3-d]pyrimidin-6(7H)-one] | 107 | C (Category C=SBP in SHRs >40 mmHg) |  | 
14 | CC1(c2cncc(F)c2)C(=O)Nc2nc(-c3cn4ncnc4c(CCC(F)(F)C(F)(F)F)n3)nc(N)c21 (stereo not drawn) [Example 9A, 4-amino-5-(5-fluoropyridin-3-yl)-5-methyl-2-(8-(3,3,4,4,4-pentafluorobutyl)-[1,2,4]triazolo[1,5-a]pyrazin-6-yl)-5H-pyrrolo[2,3-d]pyrimidin-6(7H)-one] | 119 |  | B (Category B=SBP in SHRs 20-40 mmHg) | 
15 | CC(C)Cc1nc(-c2ncc3c(n2)NC(=O)[C@@]3(C)c2ccc(F)cc2)cn2ncnc12 [Example 173A, (S)-5-(4-fluorophenyl)-2-(8-isobutyl-[1,2,4]triazolo[1,5-a]pyrazin-6-yl)-5-methyl-5,7-dihydro-6H-pyrrolo[2,3-d]pyrimidin-6-one] | 176 |  | A (Category A=SBP in SHRs <20 mmHg) | 
